Key:
Assay type in all cases: in vivo
[1] = tested on: Spring barley (Hordeum vulgare); test: Spring barley field trial 2010: emergence, height, yield; details: for Barley Yield: entire plot harvested
Procedure: A field trial was conducted to evaluate the effects of NPG on plant emergence, height, and yield in Spring barley (Hordeum vulgare) planted near Thorndale, Ontario, Canada, in 2010. Seed treatments included an Untreated Control, three concentrations of NPG, and three concentrations of a natural LCO. The natural LCO was provided by Dr. Don Smith (McGill University, Montreal, Canada) and prepared as described in Example 2. Aqueous solutions of NPG and LCO were applied at 10^−6 M, 10^−7 M and 10^−8M to barley seed using a spray nozzle and left to soak on a plastic sheet for 20 minutes. The seeds were beginning to emerge when they were planted on June 8th in a loam composed of 41% sand, 39% silt and 20% clay and 4.5% organic matter.
Barley was planted at a rate of 100 kg seed/ha to a depth of 2.5 cm. Weeds were controlled using 770 mL/ha 8.79 wt % fenoxprop-P-ethyl, and a mixture of 33.33 wt % thifensulfuron methyl and 16.67 wt % tribenuron methyl at a rate of 30 g/ha. Disease was controlled with 23.6 wt % pyraclostrobin at a rate of 0.4 L/ha. All of the products are industry standards and representative of what is used in commercial production.
The trial was conducted using a randomized complete block design with a plot size of 2 m by 8 m with a 17.8 cm row spacing, 3.3 cm plant spacing and four replications
Yield was determined by harvesting the entire plot and transforming the data to kg/ha (Table 10). Yields are not corrected for differences in emergence rates. […] It is noteworthy, however, that yield benefits may be difficult to accurately determine with the small plots used in this study.

[2] = tested on: spring wheat (Triticum aestivum); test: Spring wheat field trial 2011: emergence, vigor, tillering, biomass, yield; details: for Spring Wheat Crop Vigor (1-5 scale): vigor scale of Example 3; for Spring Wheat Biomass: 82 DAP, aerial portion
Procedure: A field trial was conducted to evaluate the effects of NPG on plant emergence, vigor, tillering, biomass and yield in spring wheat (Triticum aestivum) planted near Breslau, Ontario, Canada, in 2011. Seed treatments included an Untreated Control, 10^−7 M NPG applied as a seed treatment, 10^−7 M NPG followed by two foliar NPG applications, 10^−6 M natural LCO, and 10^−6 M commercial LCO plus a commercial rhizobia inoculant (LCO+RI). The natural LCO was provided by Dr. Don Smith (McGill University, Montreal, Canada) and prepared as described in Example 2. Seed coating was performed by injecting 7 mL of aqueous NPG solution per 100 g wheat seed into a coating machine followed by treatment and drying. […] Seed designated for use as the Untreated Check also received the fungicide maintenance treatment.
Treated seeds were sent to the DuPont Breslau, Ontario Research Station and planted on June 8th in a loam composed of 34% sand, 48% silt and 18% clay and 2.9% organic matter. […] Spring wheat was planted at a rate of 100 kg seeds/ha to a depth of 3 cm. Weeds were controlled using 8.79 wt % fenoxyprop-P-ethyl at a rate of 770 mL/ha and a mixture of 33.33 wt % thifensulfuron methyl and 16.67 wt % tribenuron methyl at a rate of 30 g/ha. Disease was controlled using 23.6 wt % pyraclostrobin fungicide at a rate of 0.4 L/ha. All of the products used are considered industry standards and representative of what is used in commercial production.
The trial was conducted using a randomized complete block design with a plot size of 2.5 m by 8 m with 17.8 cm row spacing, 3.3 cm plant spacing and four replications.
Foliar NPG applications were performed 36 and 49 days after planting. The treatments were sprayed using a 4 nozzle hollow-cone boom and CO2 propellant at a speed of 4.5 km/h and 40 psi. The 36 day application utilized a mix size of 2.0 L and spray rate of 200 L/ha water volume. The 49 day application utilized a mix size of 3.0 L and spray rate of 300 L/ha water volume.
Plant Biomass was determined at 82 DAP by harvesting the entire aerial portion of the plants from each plot (Table 17). A non-statistically significant increase in biomass was determined for the NPG, LCO+RI, and LCO treatments compared to the Untreated Control.
Yield was determined by harvesting the entire 8 m of the plot and transforming the data to kg/ha (Table 18). Yields are not corrected for differences in emergence rates.

[3] = tested on: canola seeds; test: Petri dish seed germination assay, canola; details: Salt Stress (100 mM NaCl)
Procedure: A series of Petri dish seed assays was conducted to evaluate the effects NPG on the seed germination rates of corn, soybean, and canola seeds subjected to cold stress, salt stress and non-stressed conditions (salt stress only for canola). Assays were performed with ten replications of ten seeds/plate (100 total seeds). NPG was applied to seeds at the specified concentrations prior to being placed in Petri plates. Seeds designated for Salt Stress Experiments 1 & 2 were placed in Petri dishes containing a 100 mM NaCl solution and incubated at 21° C.-22° C. in the dark. Cold stress Petri dishes were incubated at 15° C. in the dark. Untreated Controls were incubated at 21° C.-22° C. in the dark as were seeds utilized in the separately conducted non-stressed germination assays. Data was recorded as percent germination at designated times after plating. Statistical analyses were performed using one-way Anova and Kruskal-Wallis one-way analysis of variance on rank combined with Dunn's all pairwise multiple comparison procedure (α=0.05).

[4] = 10^−7M seed treatment + Foliar, 35 DAP

`CCCCCCC=CCCCCCCCC(=O)NC1C(OC)OC(CO)C(O)C1O` [NPG, Methyl 2-deoxy-2-N-(hexadece-9,10-cis-eneoyl)-β-D-glucopyranoside] was tested, and the “Barley Emergence” value ([1]; 10^−6M seed treatment, 7 DAP) was 85a %, the “Barley Plant Height” value ([1]; 10^−6M seed treatment, 7 DAP) was 5.8a cm and the “Barley Emergence” value ([1]; 10^−6M seed treatment, 15 DAP) was 88ab %. For the same compound, the “Barley Plant Height” value ([1]; 10^−6M seed treatment, 15 DAP) was 12ab cm, the “Barley Emergence” value ([1]; 10^−6M seed treatment, 43 DAP) was 19a % and the “Barley Plant Height” value ([1]; 10^−6M seed treatment, 43 DAP) was 71a cm. For the same compound, the “Barley Yield” value ([1]; 10^−6M seed treatment) was 3184 Kg/Hectare, the “Barley Emergence” value ([1]; 10^−7M seed treatment, 7 DAP) was 86a % and the “Barley Plant Height” value ([1]; 10^−7M seed treatment, 7 DAP) was 5.5ab cm. The “Barley Emergence” value ([1]; 10^−7M seed treatment, 15 DAP) was 91a %, the “Barley Plant Height” value ([1]; 10^−7M seed treatment, 15 DAP) was 14a cm and the “Barley Emergence” value ([1]; 10^−7M seed treatment, 43 DAP) was 30a %. For the same compound, the “Barley Plant Height” value ([1]; 10^−7M seed treatment, 43 DAP) was 71a cm, the “Barley Yield” value ([1]; 10^−7M seed treatment) was 2504 Kg/Hectare and the “Barley Emergence” value ([1]; 10^−8M seed treatment, 7 DAP) was 83a %. The “Barley Plant Height” value ([1]; 10^−8M seed treatment, 7 DAP) was 5.6a cm, the “Barley Emergence” value ([1]; 10^−8M seed treatment, 15 DAP) was 86ab % and the “Barley Plant Height” value ([1]; 10^−8M seed treatment, 15 DAP) was 13a cm. For the same compound, the “Barley Emergence” value ([1]; 10^−8M seed treatment, 43 DAP) was 25a %, the “Barley Plant Height” value ([1]; 10^−8M seed treatment, 43 DAP) was 72a cm and the “Barley Yield” value ([1]; 10^−8M seed treatment) was 3043 Kg/Hectare. For the same compound, the “Spring Wheat Yield” value ([2]; 10^−7M seed treatment) was 1100a kg/ha, the “Spring Wheat Yield” value ([2]; 10^−7M seed treatment + Foliar) was 1188a kg/ha and the “Wheat Crop Emergence” value ([2]; 10^−7M seed treatment + Foliar, 13 DAP) was 53a %. For the same compound, the “Spring Wheat Tillering” value [2, 4] was 8.0a tillers/plant, the “Wheat Crop Emergence” value [2, 4] was 100a % and the “Spring Wheat Crop Vigor (1-5 scale)” value [2, 4] was 3.6a. The “Spring Wheat Crop Vigor (1-5 scale)” value ([2]; 10^−7M seed treatment + Foliar, 40 DAP) was 3.5b, the “Spring Wheat Crop Vigor (1-5 scale)” value ([2]; 10^−7M seed treatment + Foliar, 52 DAP) was 3.5a and the “Spring Wheat Biomass” value ([2]; 10^−7M seed treatment + Foliar) was 0.198a kg/plant. The “Wheat Crop Emergence” value ([2]; 10^−7M seed treatment, 13 DAP) was 53a %, the “Spring Wheat Tillering” value ([2]; 10^−7M seed treatment, 35 DAP) was 9.0a tillers/plant and the “Wheat Crop Emergence” value ([2]; 10^−7M seed treatment, 35 DAP) was 100a %. The “Spring Wheat Crop Vigor (1-5 scale)” value ([2]; 10^−7M seed treatment, 35 DAP) was 3.4a, the “Spring Wheat Crop Vigor (1-5 scale)” value ([2]; 10^−7M seed treatment, 40 DAP) was 3.5b and the “Spring Wheat Crop Vigor (1-5 scale)” value ([2]; 10^−7M seed treatment, 52 DAP) was 3.4a. For the same compound, the “Spring Wheat Biomass” value ([2]; 10^−7M seed treatment) was 0.190a kg/plant, the “Canola Seed Germination” value ([3]; 10^−6M, 30 HAP) was 14b % and the “Canola Seed Germination” value ([3]; 10^−6M, 39 HAP) was 67.3ab %. The “Canola Seed Germination” value ([3]; 10^−6M, 48 HAP) was 84a %, the “Canola Seed Germination” value ([3]; 10^−7M, 30 HAP) was 22.7ab % and the “Canola Seed Germination” value ([3]; 10^−7M, 39 HAP) was 80.7a %. The “Canola Seed Germination” value ([3]; 10^−7M, 48 HAP) was 88.7a %.
